Values of other authors, collected in paper PMC9499927, “Peptidomimetics designed to bind to RAS effector domain are promising cancer therapeutic compounds” (Scientific Reports, 2022).

Assays:
[1] = tested on: Ras-binding domain of multiple RAS effectors
Text: (§1) The unclear results obtained using these experimental approaches has led the scientific community to refocus on the search for direct RAS inhibitors. With this objective, two strategies are currently being followed: the first involves searching for molecules that block the interaction with non-effector RAS proteins that bind to the HVR and/or the allosteric lobe and which modulate RAS activity; and the second is looking for drugs that inhibit the binding of RAS with its effectors[20],[21]. In this context, Rigosertib, a compound that binds to the Ras-binding domain of multiple RAS effector ...

[2] = tested on: patients with previously untreated metastatic pancreatic cancer; settings: randomized phase 2/3 trial
Text: as §1

[3] = tested on: KRAS-mutant colon and pancreatic cancer mouse models
Text: as §1

For COc1cc(OC)c(/C=C/S(=O)(=O)Cc2ccc(OC)c(NCC(=O)O)c2)c(OC)c1 [Rigosertib], the Binding [1] is given as “binds to the Ras-binding domain of multiple RAS effectors”, the “Clinical benefit of addition to gemcitabine” value [2] is given as “no benefit” and the Tumour growth inhibition [3] is given as “proven to inhibit tumour growth”.
